SMILES	melting point [°C]
O=C(C1=C(O)C2CCC(C2)C1=O)c1ccc(C(F)(F)F)nc1COC1COC1 (centres unmarked) [1.065]	102 to 105
O=C(C1=C(O)C2CCC(C2)C1=O)c1ccc(C(F)(F)F)nc1COCCOCC(F)(F)F (centres unmarked) [1.066]	40 to 44
O=C(C1=C(O)C2CCC(C2)C1=O)c1ccc(C(F)(F)F)nc1COCc1ccccc1 (centres unmarked) [1.068]	68 to 69
O=C(C1=C(O)C2CCC(C2)C1=O)c1ccc(C(F)(F)F)nc1COCCCOCc1ccccc1 (centres unmarked) [1.069]	78 to 80
COCCOCc1nc(C(F)(F)F)ccc1C(=O)C1C(=O)CCC2(CC2)C1=O (centres unmarked) [1.070]	40 to 42
O=C(c1ccc(C(F)(F)F)nc1COCC1CCCO1)C1C(=O)C2CCC(C2)C1=O (centres unmarked) [1.073]	46 to 47
CC1(C)C(=O)C(C(=O)c2ccc(C(F)(F)F)nc2COCc2ccccc2)C(=O)C(C)(C)C1=O [1.076]	75 to 76
O=C(c1ccc(C(F)(F)F)nc1COCCCl)C1C(=O)C2CCC(C2)C1=O (centres unmarked) [1.080]	63 to 64
COCCOCc1nc(C(F)(F)F)ccc1C(=O)C1=C(O)CC(C)CC1=O (centres unmarked) [1.082]	76 to 78
CN(Cc1nc(C(F)(F)F)ccc1C(=O)C1=C(O)C2CCC(C2)C1=O)S(C)(=O)=O (centres unmarked) [1.090]	149 to 150
CN(Cc1nc(C(F)(F)F)ccc1C(=O)c1cnn(C)c1O)S(C)(=O)=O [1.091]	110 to 112
